Data on two molecules can be found in patent US20120128654A1, “Allantoin Administration for the Treatment of Neurodegenerative Disease and Neurotrauma” (UNIVERSITY OF CINCINNATI, priority 2009, published 2012).

In experiment [1] the test system is striatal 6-OHDA infusion. The settings on record: peripheral adenosine, Wistar rats; cited from earlier work.
Experiment [2] relates to nigral THir neurons. The experiment in a line: Unbiased stereological counts of THir cells in the substantia nigra after striatal 6-OHDA. Format: in vivo, Sprague Dawley rats. To be noted: experiment 2, KO alone vs control pellet, 4 weeks post-6-OHDA. As for the experimental part: Rats were anesthetized prior to surgery with Equi-Thesin (0.3 ml/100 g body weight i.p.; chloral hydrate 42.5 mg/ml+sodium pentobarbital 9.72 mg/ml), their heads shaved, and then they were placed in a stereotaxic frame. Their skin was swabbed with Betadyne followed by 70% ETOH. The scalp was then opened to expose the skull. Two 1 mm holes were drilled into the skull and rats were injected in two sites in the striatum with 6-OHDA (MP Biomedicals, Solon, Ohio; 5 μg/μl 6-OHDA in 0.2% ascorbic acid, 0.9% saline solution). The coordinates for these injections were AP −1.6 mm, ML +2.4 mm, DV −4.2 mm and AP −0.2 mm, +ML 2.6 mm, DV −7.0 mm. The needle was zeroed at the skull directly above the injection site in order to target the DV coordinate. For each injection, the needle was lowered slowly to the injection site and 1 minute elapsed before injection commenced, 6-OHDA was injected at 0.5 μl/minute and at the end of the injection the needle was held in place for an additional 2 minutes prior to retraction. The wound area was cleaned with Betadine solution and the scalp was closed with surgical wound clips. This lesion paradigm results in a progressive loss of TH phenotype and frank DA cell death.
Animals were deeply anesthetized (60 mg/kg, pentobarbital, i.p.) and perfused intracardially with warm 0.9% saline containing 1 ml/L 10,000 USP heparin followed by ice-cold 0.9% saline. For immunoshistochemistry brains were removed, post fixed for 24 hours in 4% paraformaldehyde and transferred to 30% sucrose in 0.1M PO4 buffer. For determination of purine levels brains were immediately removed and flash frozen in 3-methyl butane. Brains were stored at −80° C. until analysis.
Brains were frozen on dry ice and sectioned at a 40 μm thickness using a sliding microtome. Every sixth section through the SN was processed for labeling with antisera against TH. Following blocking in 10% normal goat serum, tissue was incubated in primary antisera directed against TH (Chemicon MAB318, mouse anti TH 1:4,000) overnight at room temperature. Following primary incubation, sections were incubated in biotinylated secondary antisera against mouse IgG (Chemicon AP124B, 1:400) followed by the Vector ABC detection kit employing horseradish peroxidase (Vector Laboratories, Burlingame, Calif.). Antibody labeling was visualized by exposure to 0.5 mg/ml 3,3′ diaminobenzidine (DAB) and 0.03% H2O2 in Tris buffer. Sections were mounted on subbed slides, dehydrated to xylene and coverslipped with Cytoseal (Richard-Allan Scientific, Waltham, Mass.).
Unbiased stereological counts of THir cells were performed using a BX52 Olympus microscope (Olympus America Inc.) interfaced with Microbrightfield stereological software and a Microfire CCD camera (Optronics, Goleta, Calif.). Utilizing 2 μm guard zones and a 50 μm×50 μm counting frame a grid size of 112 μm×183 μm was employed to assure that all coefficient of error values were ≦0.10. Using the optical fractionator principle, the regions of interest were individually outlined under a low magnification (1.25×). Using a 60× magnification lens with a 1.4 N/A the section thickness was empirically determined by first bringing the top of the section into focus and then using Microbrightfield software to step through the z-axis in 1 μm increments until the very bottom of the section was in focus. […]

Each structure is given as a SMILES string.

In the case of `Nc1ncnc2c1ncn2[C@@H]1O[C@H](CO)[C@@H](O)[C@H]1O` [adenosine], the “neuroprotection against striatal 6-OHDA infusion” value in experiment [1] is “functional neuroprotection”.

For the molecule `O=C([O-])c1nc(=O)[nH]c(=O)[nH]1.[K+]` [KO, potassium oxonate], the “number of THir neurons in either the intact or lesioned SN” value in experiment [2] is “no significant impact”.
